Test results from patent US7250521B2, “Method for production of Δ1-pyrrolines” (Bayer CropScience Aktiengesellschaft, priority 2001, dated 2007).

Experiment: logP determination by HPLC on reverse-phase column (C 18), EEC directive 79/831 Annex V.A8
Type: physicochemical
Procedure: In the acidic range, the determination is carried out at pH 2.3 using the mobile phases 0.1% aqueous phosphoric acid and acetonitrile; linear gradient from 10% acetonitrile to 90% acetonitrile.
In the neutral range, the determination is carried out at pH 7.5 using the mobile phases 0.01 molar aqueous phosphate buffer solution and acetonitrile; linear gradient from 10% acetonitrile to 90% acetonitrile.

[1] = reverse-phase HPLC column (C 18), pH 2.3, acidic range, pH 2.3; 0.1% aqueous phosphoric acid/acetonitrile gradient; 43° C.; values marked a)
[2] = reverse-phase HPLC column (C 18), pH 7.5, neutral range, pH 7.5; 0.01 molar aqueous phosphate buffer/acetonitrile gradient; 43° C.; values marked b)

| SMILES | chromatographic logP [1] | chromatographic logP [2] | logP (acidic range, pH 2.3; 0.1% aqueous phosphoric acid/acetonitrile gradient; 43° C.; values marked a)) |
| --- | --- | --- | --- |
| O=C1CCC(c2ccc(-c3ccc(SC(F)(F)F)cc3)cc2)N1 (single isomer, unassigned; isomer 5) [V-2 para isomer, 5-{4′-[(trifluoromethyl)thio]-1,1′-biphenyl-4-yl}-2-pyrrolidinone] | 3.24 |  |  |
| Clc1ccccc1C1=NC(c2cccc(Br)c2)CC1 (stereo not drawn) [Example 15] | 2.99 |  |  |
| FC(F)(F)Sc1ccc(-c2ccc(C3CCC(c4ccccc4Cl)=N3)cc2)cc1 (stereo not drawn) [Example 16] | 4.67 | 5.94 |  |
| FC(F)(F)Sc1ccc(-c2ccc(C3CCC(c4ccc(Cl)cc4Cl)=N3)cc2)cc1 (stereo not drawn) [Example 19] | 6.19 |  |  |
| CC(C)c1ccc(C2CCC(c3ccccc3Cl)=N2)cc1 (stereo not drawn) [Example 21] | 2.74 |  |  |
| Cc1ccccc1C1=NC(c2ccc(C(C)C)cc2)CC1 (stereo not drawn) [Example 25] | 2.11 | 5.01 |  |
| Cc1cc(Cl)ccc1C1CCC(c2ccccc2Cl)=N1 (stereo not drawn) [Example 28] | 3.18 | 4.62 |  |
| Cc1cc(Cl)ccc1C1CCC(c2ccccc2Br)=N1 (stereo not drawn) [Example 29] | 3.55 | 4.63 |  |
| Cc1ccccc1C1=NC(c2ccc(Cl)cc2C)CC1 (stereo not drawn) [Example 30] | 2.06 | 4.79 |  |
| Fc1ccc(C2CCC(c3ccccc3)=N2)cc1 (stereo not drawn) [Example 32] | 1.12 | 3.34 |  |
| Fc1ccc(C2CCC(c3cccc(Cl)c3)=N2)cc1 (stereo not drawn) [Example 33] | 1.98 | 4.05 |  |
| Fc1ccc(C2CCC(c3ccc(Cl)cc3)=N2)cc1 (stereo not drawn) [Example 34] | 1.63 | 3.99 |  |
| CC(C)Sc1ccc(C2CCC(c3c(F)cccc3F)=N2)cc1 (stereo not drawn) [Example 36] | 2.18 |  |  |
| Fc1ccc(C2CCC(c3c(Cl)cccc3Cl)=N2)cc1 (stereo not drawn) [Example 37] | 3.78 | 3.95 |  |
| Cc1ccc(C2CCC(c3ccccc3Cl)=N2)c(Cl)c1 (stereo not drawn) [Example 38] | 3.52 | 4.86 |  |
| Cc1cc(Cl)ccc1C1CCC(c2ccccc2F)=N1 (stereo not drawn) [Example 39] | 2.09 | 4.51 |  |
| COc1ccc(C2CCC(c3ccccc3Cl)=N2)cc1F (stereo not drawn) [Example 40] | 1.97 | 3.52 |  |
| Clc1ccc(C2=NC(c3ccccc3)CC2)cc1Cl (stereo not drawn) [Example 44] | 2.68 | 4.59 |  |
| Clc1ccc(C2CCC(c3ccccc3Cl)=N2)cc1Cl (stereo not drawn) [Example 45] | 3.83 | 4.75 |  |
| Clc1ccc(C2CCC(c3ccccc3Cl)=N2)c(Cl)c1 (stereo not drawn) [Example 46] | 4.66 | 5.2 |  |
| Cc1ccc(C2CCC(c3ccccc3Br)=N2)c(Cl)c1 (stereo not drawn) [Example 47] | 3.98 | 4.88 |  |
| Clc1cccc(C2=NC(c3ccccc3)CC2)c1 (stereo not drawn) [Example 48] | 1.73 | 3.97 |  |
| Fc1ccc(C2CCC(c3ccccc3Cl)=N2)cc1F (stereo not drawn) [Example 49] | 2.67 | 3.86 |  |
| Cc1ccc(C2CCC(c3ccccc3F)=N2)c(Cl)c1 (stereo not drawn) [Example 50] | 2.39 | 4.74 |  |
| Fc1ccc(C2CCC(c3cc(Cl)ccc3Cl)=N2)cc1 (stereo not drawn) [Example 51] | 3.79 | 4.36 |  |
| CCOc1cc(C(C)(C)C)ccc1C1CCC(c2ccccc2Cl)=N1 (stereo not drawn) [Example 52] | 3.01 | 5.78 |  |
| Cc1ccc(C2CCC(c3ccccc3Cl)=N2)cc1Cl (stereo not drawn) [Example 54] | 2.98 | 4.67 |  |
| CCOc1cc(C(C)(C)C)ccc1C1CCC(c2ccccc2Br)=N1 (stereo not drawn) [Example 57] | 3.31 | 5.8 |  |
| Fc1cccc(F)c1C1=NC(c2ccc(SCc3ccc(Cl)cc3)cc2)CC1 (stereo not drawn) [Example 59] | 2.88 |  |  |
| Fc1ccc(C2CCC(c3ccccc3Cl)=N2)c(F)c1 (stereo not drawn) [Example 60] | 2.9 | 3.96 |  |

Results, then the molecule that gave them:

| chromatographic logP [1] | chromatographic logP [2] | logP (acidic range, pH 2.3; 0.1% aqueous phosphoric acid/acetonitrile gradient; 43° C.; values marked a)) | SMILES |
| --- | --- | --- | --- |
| 3.61 |  |  | FC(F)(F)Oc1ccc(C2CCC(c3ccccc3Br)=N2)cc1 (stereo not drawn) [Example 1, 5-(2-bromophenyl)-2-[4-(trifluoro-methoxy)phenyl]-3,4-dihydro-2H-pyrrole] |
| 3.9 |  |  | FC(F)(F)c1ccccc1C1=NC(c2ccc(Br)cc2)CC1 (stereo not drawn) [Example 2] |
| 5.11 |  |  | FC(F)(F)Oc1ccc(-c2ccc(C3CCC(c4ccccc4C(F)(F)F)=N3)cc2)cc1 (stereo not drawn) [Example 3] |
| 3.09 | 5.45 |  | Fc1ccccc1C1=NC(c2ccc(-c3ccc(OC(F)(F)F)cc3)cc2)CC1 (stereo not drawn) [Example 4] |
| 2.55 | 5.23 |  | COc1ccccc1C1=NC(c2ccc(-c3ccc(OC(F)(F)F)cc3)cc2)CC1 (stereo not drawn) [Example 5] |
| 5.7 |  |  | Cc1cccc(C)c1C1=NC(c2ccc(-c3ccc(OC(F)(F)F)cc3)cc2)CC1 (stereo not drawn) [Example 6] |
| 4.83 |  |  | FC(F)(F)Oc1ccc(-c2ccc(C3CCC(c4ccccc4OC(F)(F)F)=N3)cc2)cc1 (stereo not drawn) [Example 7] |
| 5.69 |  |  | FC(F)(F)Oc1ccc(-c2ccc(C3CCC(c4ccc(Cl)cc4Cl)=N3)cc2)cc1 (stereo not drawn) [Example 8] |
| 2.41 |  |  | Fc1cccc(F)c1C1=NC(c2ccc(OCC(F)(F)F)cc2)CC1 (stereo not drawn) [Example 9] |
| 1.63 |  |  | C=CCOc1ccc(C2CCC(c3ccccc3F)=N2)cc1 (stereo not drawn) [Example 10] |
| 3.45 | 5.84 |  | Fc1ccccc1C1=NC(c2ccc(-c3ccc(SC(F)(F)F)cc3)cc2)CC1 (stereo not drawn) [Example 17] |
| 3.25 | 6.1 |  | Cc1ccccc1C1=NC(c2ccc(-c3ccc(SC(F)(F)F)cc3)cc2)CC1 (stereo not drawn) [Example 18] |
| 3.05 |  |  | CC(C)(C)c1ccc(C2CCC(c3ccccc3Cl)=N2)cc1 (stereo not drawn) [Example 20] |
| 2.09 |  |  | CC(C)c1ccc(C2CCC(c3ccccc3F)=N2)cc1 (stereo not drawn) [Example 22] |
| 3.06 |  |  | CC(C)c1ccc(C2CCC(c3ccccc3Br)=N2)cc1 (stereo not drawn) [Example 23] |
| 2.33 | 5.06 |  | CC(C)(C)c1ccc(C2CCC(c3ccccc3F)=N2)cc1 (stereo not drawn) [Example 24] |
| 3.36 | 5.21 |  | CC(C)(C)c1ccc(C2CCC(c3ccccc3Br)=N2)cc1 (stereo not drawn) [Example 26] |
| 2.31 |  |  | Cc1ccccc1C1=NC(c2ccc(C(C)(C)C)cc2)CC1 (stereo not drawn) [Example 27] |
| 1.41 |  |  | Cc1ccccc1C1=NC(c2ccc(F)cc2)CC1 (stereo not drawn) [Example 31] |
|  | 4.5 |  | FC(F)(F)Oc1ccc(C2CCC(c3ccccc3Cl)=N2)cc1 (stereo not drawn) [Example 41] |
| 1.79 | 3.5 |  | COc1ccc(C2CCC(c3ccccc3Br)=N2)cc1 (stereo not drawn) [Example 42] |
| 2.22 |  |  | COc1ccc(C2CCC(c3ccccc3Br)=N2)cc1F (stereo not drawn) [Example 43] |
|  |  | 3.63^a) | FC(F)(F)Oc1ccc(C2CCC(c3ccccc3Br)=N2)cc1 (stereo not drawn) [Example 53] |
| 2.19 | 4 |  | CSc1ccc(C2CCC(c3ccccc3Cl)=N2)cc1 (stereo not drawn) [Example 55] |
| 3.01 | 3.89 |  | Fc1ccc(C2CCC(c3ccccc3Br)=N2)cc1F (stereo not drawn) [Example 56] |
| 2.5 | 4.03 |  | CSc1ccc(C2CCC(c3ccccc3Br)=N2)cc1 (stereo not drawn) [Example 58] |
